Results from PubChem BioAssay AID1918999 (Molecular Pharmacology Branch, DTP, NCI, 2023).
Values joined by “and” are separate entries in the source; they are usually repeats but may differ in a detail not shown here. Equal values may be shown once.

Tested on: 556581-035-R-J1-PDC complex spheroid growth
Test: Anticancer human tumor 556581-035-R-J1-PDC patient-derived ovarian carcinoma cell line growth inhibition [AhR]
Conditions: for viability, T/C: stronger effect = lower value
How it was run: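 Complex tumor spheroids co-cultured with HUVEC and human MSC stroma; AhR antagonists tested in combination with standard-of-care and investigational agents. Top concentration at or near clinical Cmax (else 10 microM), half-log dilutions; growth expressed as percent test/control.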

[1] = curve of first compound, second compound 0.1 µM
[2] = curve of first compound, second compound 0.316 µM
[3] = curve of first compound, second compound 1 µM
[4] = curve of first compound, second compound 3.16 µM
[5] = curve of first compound, second compound 10 µM
[6] = second compound 0.1 µM, first compound 0.0316 µM
[7] = second compound 0.1 µM, first compound 0.1 µM
[8] = second compound 0.1 µM, first compound 0.316 µM
[9] = second compound 0.1 µM, first compound 1 µM
[10] = second compound 0.1 µM, first compound 3.16 µM
[11] = second compound 0.1 µM, first compound 10 µM
[12] = second compound 0.316 µM, first compound 0.0316 µM
[13] = second compound 0.316 µM, first compound 0.1 µM
[14] = second compound 0.316 µM, first compound 0.316 µM
[15] = second compound 0.316 µM, first compound 1 µM
[16] = second compound 0.316 µM, first compound 3.16 µM
[17] = second compound 0.316 µM, first compound 10 µM
[18] = second compound 1 µM, first compound 0.0316 µM
[19] = second compound 1 µM, first compound 0.1 µM
[20] = second compound 1 µM, first compound 0.316 µM
[21] = second compound 1 µM, first compound 1 µM
[22] = second compound 1 µM, first compound 3.16 µM
[23] = second compound 1 µM, first compound 10 µM
[24] = second compound 3.16 µM, first compound 0.0316 µM
[25] = second compound 3.16 µM, first compound 0.1 µM
[26] = second compound 3.16 µM, first compound 0.316 µM
[27] = second compound 3.16 µM, first compound 1 µM
[28] = second compound 3.16 µM, first compound 3.16 µM
[29] = second compound 3.16 µM, first compound 10 µM
[30] = second compound 10 µM, first compound 0.0316 µM
[31] = second compound 10 µM, first compound 0.1 µM
[32] = second compound 10 µM, first compound 0.316 µM
[33] = second compound 10 µM, first compound 1 µM
[34] = second compound 10 µM, first compound 3.16 µM
[35] = second compound 10 µM, first compound 10 µM
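Wherever viability, T/C is given: compound exposure lasted 7 days; 100% = DMSO vehicle control growth.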

For `CCc1c2c(nc3ccc(O)cc13)-c1cc3c(c(=O)n1C2)COC(=O)[C@]3(O)CC`, the viability, T/C (compound 0.000949 µM) was 89.1% and 96% and 90.5%, the viability, T/C (compound 0.003 µM) was 75% and 95% and 73.6% and the viability, T/C (compound 0.00949 µM) was 54.5% and 61% and 53.9%. For the same compound, the viability, T/C (compound 0.03 µM) was 39.9% and 46% and 40.5%, the viability, T/C (compound 0.0949 µM) was 17.3% and 25.3% and 22.7% and the viability, T/C (compound 0.3 µM) was 10.3% and 15.8% and 10.7%. For the same compound, the IC50 (curve of compound) was 0.0136 µM and 0.0213 µM and 0.0137 µM.

In the case of `CC1COCCN1c1cc(C2(S(C)(=N)=O)CC2)nc(-c2ccnc3[nH]ccc23)n1` (configuration not stated) + Cc1cncc(-c2nc(NCCc3c[nH]c4ccccc34)c3ncn(C(C)C)c3n2)c1, the IC50 [1] is reported as > 10 µM, the IC50 [2] is reported as > 10 µM and the IC50 [3] is reported as > 10 µM. The IC50 [4] was > 10 µM, the IC50 [5] was > 10 µM and the viability, T/C [6] was 103%. It also gave a viability, T/C [7] of 104%, a viability, T/C [8] of 92.2% and a viability, T/C [9] of 93.3%. For the same compound, the viability, T/C [10] was 73.5%, the viability, T/C [11] was 67.4% and the viability, T/C [12] was 99%. It also gave a viability, T/C [13] of 97.9%, a viability, T/C [14] of 99.4% and a viability, T/C [15] of 95.4%. It also gave a viability, T/C [16] of 82.5%, a viability, T/C [17] of 68.9% and a viability, T/C [18] of 101%. For the same compound, the viability, T/C [19] was 106%, the viability, T/C [20] was 102% and the viability, T/C [21] was 94.7%. The viability, T/C [22] was 85%, the viability, T/C [23] was 67.3% and the viability, T/C [24] was 111%. For the same compound, the viability, T/C [25] was 103%, the viability, T/C [26] was 92.2% and the viability, T/C [27] was 99.2%. It also gave a viability, T/C [28] of 74.2%, a viability, T/C [29] of 78.2% and a viability, T/C [30] of 80.4%. It also gave a viability, T/C [31] of 90.1%, a viability, T/C [32] of 80.7% and a viability, T/C [33] of 90.9%. It also gave a viability, T/C [34] of 79.5% and a viability, T/C [35] of 63.8%.

With `CC1(C)CCC(CN2CCN(c3ccc(C(=O)NS(=O)(=O)c4ccc(NCC5CCOCC5)c([N+](=O)[O-])c4)c(Oc4cnc5[nH]ccc5c4)c3)CC2)=C(c2ccc(Cl)cc2)C1` + Cc1cncc(-c2nc(NCCc3c[nH]c4ccccc34)c3ncn(C(C)C)c3n2)c1 the IC50 [1] was > 10 µM, the IC50 [2] was > 10 µM and the IC50 [3] was > 10 µM. The IC50 [4] was > 10 µM, the IC50 [5] was > 10 µM and the viability, T/C [6] was 104%. For the same compound, the viability, T/C [7] was 98.6%, the viability, T/C [8] was 102% and the viability, T/C [9] was 91%. The viability, T/C [10] was 93.1%, the viability, T/C [11] was 77.5% and the viability, T/C [12] was 95.6%. For the same compound, the viability, T/C [13] was 98.2%, the viability, T/C [14] was 102% and the viability, T/C [15] was 95.1%. The viability, T/C [16] was 96.3%, the viability, T/C [17] was 72.3% and the viability, T/C [18] was 105%. The viability, T/C [19] was 99.9%, the viability, T/C [20] was 101% and the viability, T/C [21] was 91.5%. For the same compound, the viability, T/C [22] was 85.6%, the viability, T/C [23] was 76.9% and the viability, T/C [24] was 95.2%. For the same compound, the viability, T/C [25] was 101%, the viability, T/C [26] was 91% and the viability, T/C [27] was 87.8%. The viability, T/C [28] was 80.6%, the viability, T/C [29] was 67.8% and the viability, T/C [30] was 88.9%. The viability, T/C [31] was 80.6%, the viability, T/C [32] was 87.6% and the viability, T/C [33] was 83.7%. It also gave a viability, T/C [34] of 81.2% and a viability, T/C [35] of 67.1%.
